Source: patent publication US7056509B2 (Board of Regents The University of Texas System, priority 1999, dated 2006)

How the values were obtained:
VEGFR2 (KDR/Fc) = assay: Coprecipitation assay, VEGF with VEGFR2/Fc in solution; format: binding; conditions: 40 ng VEGF, 200 ng receptor/Fc, F(ab′)2 of antibody
Procedure: 200 ng of soluble forms of VEGFR1 (Flt-1/Fc) or VEGFR2 (KDR/Fc, R&D Systems, Minneapolis, Minn.) were added for a total volume of 50 μl and incubated for 2 hrs. The receptor/Fc constructs were precipitated using Protein A-sepharose beads and the resulting precipitate was washed 4 times with binding buffer.
Reducing sample buffer was added to the pellet and supernatant of each reaction and both were analyzed by 12% SDS-PAGE and transferred to PVDF membranes. […] The soluble receptor/Fc constructs were also detected by using peroxidase-conjugated goat anti-human Fc (Kirkegaard & Perry Laboratories, Inc.)
The receptor/Fc constructs were precipitated by incubation with Protein A sepharose beads. The precipitate was washed and resuspended in reducing sample buffer and separated by 12% SDS-PAGE and transferred to PVDF.

[1] = Blood clearance of radioiodinated 2C3-GUS in mice; format: in vivo, mouse; conditions: after intravenous injection into mice, 125I-labelled
Source text: 2C3-GUS was radioiodinated with ^125I to a specific activity of 5×10^6 cpm/μg.

[2] = test system: human NCI-H358 NSCLC tumors; assay: Localization of 2C3-GUS in SCID mice bearing NCI-H358 tumors; format: in vivo, mouse
HT1080 fibrosarcoma = assay: In vivo tumor therapy, established HT1080 xenografts; set-up: species or system mouse; conditions: 100 μg i.p. every other day
Procedure: (§1) Male nu/nu mice bearing subcutaneous NCI-H358 tumors or HT1080 fibrosarcoma 200–400 mm^3 in size were injected i.p. with test or control antibodies. The NCI-H358 bearing mice were treated with 100 μg of antibodies per injection three times a week during the first week and twice a week during the second and third week. The mice were then switched to 50 μg per injection every five days. The HT1080 bearing mice were treated with 100 μg of the indicated antibody or saline every other day throughout the duration of the study. In both studies, mice were sacrificed when their tumors reached 2500 mm^3 in size or earlier if tumors began to ulcerate.

VEGF and VEGF:Flk-1 = biological target: T1, VEGF and VEGF:Flk-1 (Homo sapiens, UniProt P15692); assay: Indirect and capture ELISA for reactivity with VEGF alone or VEGF associated with sFlk-1; format: binding; conditions: VEGF alone or VEGF associated with sFlk-1 (VEGF:Flk-1)
T1 sequence (P15692 27-191 isoform P15692-4): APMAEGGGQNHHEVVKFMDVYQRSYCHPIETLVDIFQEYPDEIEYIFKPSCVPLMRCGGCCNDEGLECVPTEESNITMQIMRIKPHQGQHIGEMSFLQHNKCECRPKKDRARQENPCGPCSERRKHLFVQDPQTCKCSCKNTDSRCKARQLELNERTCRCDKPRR
Procedure: The Flk-1/SEAP protein was produced and purified as described by Tessler et al. (1994). Basically, the extracellular domain of Flk-1 (sFlk-1) was produced in Spodoptera frugiperda (Sf9) cells and purified by immunoaffinity techniques utilizing a monoclonal anti-Flk-1 antibody (1A8). sFlk-1 was then biotinylated and bound on avidin-coated plates.
The reactivity was determined as described above for the initial screening.
A capture ELISA was also developed. In the capture ELISA, microtiter plates were-coated overnight at 4° C. with 100 ng of the indicated antibody. […] Streptavidin conjugated to peroxidase (Kirkegaard & Perry Laboratories, Inc.), diluted 1:2000, was used as a second layer and developed.

ABAE cells = assay: Endothelial cell growth assay (VEGF-mediated growth, MTS); format: cell-based, bovine
Procedure: Adult bovine aortic endothelial (ABAE) cells were plated into 96-well tissue culture plates at 1500 cells/well and grown in the presence of 0.5 nM human VEGF with the addition of the various sample and control antibodies. Control wells received media with or without VEGF.
After 4 days of incubation, the cells were quantified by an MTS (3-(4,5-dimethylthiazol-2-yl)-5-(3-carboxylmethoxyphenyl)-2-(4-sulfophenyl)-2H-tetrazolium, inner salt) conversion assay, where MTS conversion to a formazan is proportional to cell number and can be followed by absorbance at 490 nm (Cell Titer 96 AQueous One Solution Cell Proliferation Assay, Promega, Madison, Wis.). The assay was performed according to the manufacturer's instructions.
Cell growth was estimated by subtracting the MTS conversion in cultures to which VEGF was not added. Results were expressed as a percentage of the MTS conversion in control cultures to which only VEGF was added (Buttke et al., 1993).

[3] = test system: NCI-H358 NSCLC and HT29 colon adenocarcinoma xenografts; assay: In vivo localization to human tumor xenografts in tumor-bearing mice; set-up: species or system mouse; conditions: i.v. 24 hours prior to sacrifice; 3E7 and GV39M bound tumor vascular endothelium, 2C3 tumor stroma
Procedure: Tumors were grown subcutaneously in immunocompromised mice (NCI-H358 NSCLC in nu/nu mice and HT29 colon adenocarcinoma in SCID mice) until the tumor volume was approximately 1 cm^3. 100 μg of unlabeled antibody for studies using SCID mice, or 100 μg of biotinylated antibody for studies using nude mice, was injected intravenously via a tail vein. Twenty four hours later, the mice were anesthetized, perfused with PBS, and tumor and organs including heart, lungs, liver, kidneys, intestines and spleen were collected and snap frozen in liquid nitrogen.
The tumor and organs from each mouse were sectioned on a cryostat and stained for antibody immunohistochemically as above, with the exception that sections from the nude mice were developed using peroxidase labeled streptavidin-biotin complex (Dako, Carpinteria, Calif.) and the sections from the SCID mice were developed using two peroxidase-conjugated secondary antibodies, a goat anti-mouse IgG+IgM followed by a rabbit anti-goat IgG.
100 μg of GV39M and 3E7 or isotype-matched control IgG were injected into SCID mice bearing HT29 human colonic adenocarcinomas. Twenty-four hours later, the mice were sacrificed, exsanguinated and the tumors and tissues were removed.

VEGF = biological target: T2, VEGF (Homo sapiens, UniProt P15692); assay: Competition ELISA (epitope groups, cross-blocking); format: binding; conditions: ELISA cross-blocking studies of 2C3 with A4.6.1
T2 sequence (P15692 27-191 isoform P15692-4): T1 sequence (P15692 27-191 isoform P15692-4)
Procedure: Competition ELISA studies were performed by first labeling the antibodies with peroxidase according to the manufacturer's instructions (EZ-Link Activated Peroxidase, Pierce). […] Approximately 0.5–2.0 μg/ml of peroxidase labeled test antibody was incubated on the plate in the presence of either buffer alone, an irrelevant IgG, or the other anti-VEGF competing antibodies in a 10–100 fold excess.
The assay was done in triplicate at least twice for each combination of labeled and competitor antibody. Two antibodies were considered to be in the same epitope group if they cross-blocked each other's binding by greater than 80%.

A673 rhabdomyosarcoma [4] = assay: In vivo tumor growth inhibition, newly-implanted A673; set-up: species or system mouse
Procedure: (§2) Nu/nu mice were injected subcutaneously with either 1×10^7 NCI-H358 NSCLC cells or 5×10^6 A673 rhabdomyosarcoma cells on day 0. […] The tumors were then measured twice per wk for a period of approximately six wk for the NCI-H358 bearing mice and four wk for the A673 bearing mice. Tumor volume was calculated according to the formula: volume=L×W×H, where L=length, W=width, H=height.

A673 rhabdomyosarcoma [5] = assay: Treatment of mice with established A673 tumors; format: in vivo, mouse
VEGFR2 in PAE/KDR cells = assay: VEGF-induced phosphorylation of VEGFR2 (immunoprecipitation and western blot); format: cell-based, porcine; conditions: antibody at 100 nM, 15 min
Procedure: PAE/KDR, PAE/FLT, and bEND.3 cells were grown to 80–90% confluency in 100 mm tissue dishes in media containing 5% serum. The cells were then serum starved for 24 hours in media containing 0.1% serum. After pretreatment with […] in PBS for 30 min, the cells were incubated with 5 nM (200 ng/ml) VEGF165, 5 nM (100 ng/ml) bFGF (R&D Systems, Minneapolis, Minn.), or A673 tumor conditioned media in the presence or absence of control or test antibodies for additional 15 min.
The cells were then washed with ice-cold PBS containing 10 mM EDTA, 2 mM sodium fluoride, and 2 mM sodium orthovanadate and lysed in lysis buffer (50 mM Tris, 150 mM NaCl, 1% Nonidet P-40, 0.25% sodium deoxycholate, 0.1% CHAPS, 5 mM EDTA, 1.5 mM MgCl2, 2 mM sodium fluoride, 2 mM sodium orthovanadate, 10% glycerol and protease inhibitors (Complete Protease Inhibitor Cocktail tablets, Boehringer Mannheim)). The lysates were clarified by centrifugation and resulting supernatant used for immunoprecipitation.
The reactions using the chicken anti-FLT-1 antibody were subsequently incubated with a bridging goat anti-chicken antibody (Kirkegaard and Perry Laboratories, Inc.) for 1 h at 4° C. […]

VEGFR2 (KDR/Flk-1) = assay: ELISA of VEGF binding to VEGFR2-coated wells in presence of antibody; set-up: species or system mouse; conditions: 1000-fold molar excess of antibody over VEGF (1 nM)
NCI-H358 NSCLC = assay: In vivo tumor growth inhibition, newly-implanted NCI-H358; set-up: species or system mouse
Procedure: as §2

NCI-H358 NSCLC tumors = assay: In vivo tumor therapy, established NCI-H358 xenografts; set-up: species or system mouse
Procedure: as §1
Doses were 50–100 μg every 3–5 days. […] In addition to measuring mean tumor volume (FIG. 4), photographs of the mice from each treatment group were also taken to show the differences in tumor size and appearance at the end of the study.

[6] = test system: LS174T colon adenocarcinoma; assay: LS174T tumor model in mice; format: in vivo, mouse; conditions: mice with established tumors
[7] = patients having progressive disease before treatment; cited from earlier work
[8] = 100 μg i.p. 2 times per wk from day 1, nu/nu mice

**Q.** For 2C3 F(ab′)2: F(ab′)2 of 2C3, which “Blocking of VEGF binding to VEGFR2/Fc in solution” value (VEGFR2 (KDR/Fc)) is on record?
**A.** Its value is “blocked the binding of VEGF to VEGFR2/Fc”.

**Q.** Which “t½ α” value [1] does the source give for 2C3-GUS here?
**A.** The value was “about 6 hours”.

**Q.** And the “t½ β” value [1]?
**A.** The value was “about 25 hours”.

**Q.** And the “Localization after i.v. injection” value ([2]; immunohistochemistry on frozen sections of tumors)?
**A.** Its value is “specifically localized to tumor vasculature and surrounding tumor stroma”.

**Q.** And the “Time of maximal localization after injection” value ([2]; mouse, in vivo)?
**A.** The value was 24 to 48 h.

**Q.** What about the “Staining of normal tissues” value ([2]; mouse, in vivo, iv) of the same compound?
**A.** Its value is “unstained”.

**Q.** For “2C3: monoclonal anti-VEGF antibody, IgG2a k, hybridoma ATCC PTA 1595; blocks VEGF binding to VEGFR2 but not VEGFR1”, which Tumor growth (HT1080 fibrosarcoma) is on record?
**A.** Its Tumor growth is “arrested the growth of the tumors”.

**Q.** What about the “Predominant Reactivity” value (VEGF and VEGF:Flk-1) of the same compound?
**A.** Its value is “VEGF”.

**Q.** And the “Blocks VEGF-induced proliferation” value (ABAE cells)?
**A.** The value was “Yes”.

**Q.** And the “Immunohistochemical Reactivity Tumor” value [3]?
**A.** The value was 3+.

**Q.** What about the “Epitope on VEGF” value (VEGF) of the same compound?
**A.** Its value is “not cross-reactive”.

**Q.** And the Final tumor volume (A673 rhabdomyosarcoma [4]; [8])?
**A.** Its Final tumor volume is “approximately 150 mm^3”.

**Q.** What about the “Effect on growth of A673 tumors” value (A673 rhabdomyosarcoma [4]; 10 or 1 μg twice per wk, compared to untreated mice) of the same compound?
**A.** The value was “did slow the growth of A673 tumors”.

**Q.** What about the “Growth of established tumors” value (A673 rhabdomyosarcoma [5]) of the same compound?
**A.** Its value is “significantly slowed the growth”.

**Q.** And the “Blocking of VEGF-induced phosphorylation of VEGFR2” value (VEGFR2 in PAE/KDR cells)?
**A.** Its value is “block VEGF-induced phosphorylation of VEGFR2”.

**Q.** What about the “VEGF bound to VEGFR2-coated wells, % of amount bound in absence of antibody” value (VEGFR2 (KDR/Flk-1)) of the same compound?
**A.** The value was ~19%.

**Q.** What about the Tumor growth retardation (NCI-H358 NSCLC; 10 μg dose twice per wk) of the same compound?
**A.** The Tumor growth retardation was “less marked”.

**Q.** And the Final tumor volume (NCI-H358 NSCLC; [8])?
**A.** Its Final tumor volume is “approximately 150 mm^3”.

**Q.** And the “Mean tumor volume after approximately 14 wk of treatment” value (NCI-H358 NSCLC tumors; 100 μg i.p., prolonged treatment (FIG. 5A))?
**A.** Its value is 84 mm^3.

**Q.** And the “Mean tumor volume at the end of the study, % of initial mean tumor volume” value (NCI-H358 NSCLC tumors; 50–100 μg i.p. every 3–5 days, approximately 10 weeks of treatment)?
**A.** The value was 30%.

**Q.** What about the Mean tumor weight (NCI-H358 NSCLC tumors; end of the study (day 116), FIG. 5A) of the same compound?
**A.** The Mean tumor weight was 0.054 g.

**Q.** And the “Decrease in mean tumor volume” value (NCI-H358 NSCLC tumors; start to approximately 14 wk of treatment (FIG. 5A))?
**A.** Its value is “approximately 80%”.

**Q.** And the “Growth of established tumors” value [6]?
**A.** Its value is “significantly slowed the growth”.

**Q.** With `NC(=O)c1nnn(Cc2cc(Cl)c(C(=O)c3ccc(Cl)cc3)c(Cl)c2)c1N` [CAI, carboxyamidotriazole] as the compound, how does the “Cancer patients with disease stabilization” value [7] read?
**A.** The value was 49%.
